This is an account of results in ChEMBL document CHEMBL1134008, “Cis- and trans-N-benzyl-octahydrobenzo[g]quinolines. Adrenergic and dopaminergic activity studies” (Bioorg Med Chem Lett, 2001).

Each structure is given as a SMILES string.

What all share (type): cell membranes, Membrane
Assay [1] has as its target T1, D(2) dopamine receptor (Rattus norvegicus, UniProt P61169). Kind of assay: Inhibition of binding of [3H]spiroperidol to Dopamine receptor D2 in rat striatal membranes at 5 uM concentration; NA is not active.
The target of assay [2] is T2, D(1A) dopamine receptor (Rattus norvegicus, UniProt P18901). Kind of assay: Inhibition of binding of [3H]SCH-23390 to Dopamine receptor D1 in rat striatal membranes at 5 uM concentration; NA is not active.
Assay [3] has as its target T3, Adrenergic receptor alpha-2 (Rattus norvegicus, UniProt P22086+P19328+P22909).
T3 sequence (P22086 whole entry): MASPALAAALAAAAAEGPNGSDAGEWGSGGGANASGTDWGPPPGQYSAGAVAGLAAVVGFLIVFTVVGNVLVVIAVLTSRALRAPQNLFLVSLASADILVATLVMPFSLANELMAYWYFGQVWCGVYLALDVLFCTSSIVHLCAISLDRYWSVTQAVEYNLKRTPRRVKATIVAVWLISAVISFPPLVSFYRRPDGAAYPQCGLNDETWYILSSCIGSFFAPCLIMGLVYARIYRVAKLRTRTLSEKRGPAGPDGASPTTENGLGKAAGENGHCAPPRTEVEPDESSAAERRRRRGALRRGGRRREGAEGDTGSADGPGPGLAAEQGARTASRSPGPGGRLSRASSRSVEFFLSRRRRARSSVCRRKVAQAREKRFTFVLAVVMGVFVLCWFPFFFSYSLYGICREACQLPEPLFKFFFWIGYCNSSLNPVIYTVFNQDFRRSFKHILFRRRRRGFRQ
T3 sequence (P19328 whole entry): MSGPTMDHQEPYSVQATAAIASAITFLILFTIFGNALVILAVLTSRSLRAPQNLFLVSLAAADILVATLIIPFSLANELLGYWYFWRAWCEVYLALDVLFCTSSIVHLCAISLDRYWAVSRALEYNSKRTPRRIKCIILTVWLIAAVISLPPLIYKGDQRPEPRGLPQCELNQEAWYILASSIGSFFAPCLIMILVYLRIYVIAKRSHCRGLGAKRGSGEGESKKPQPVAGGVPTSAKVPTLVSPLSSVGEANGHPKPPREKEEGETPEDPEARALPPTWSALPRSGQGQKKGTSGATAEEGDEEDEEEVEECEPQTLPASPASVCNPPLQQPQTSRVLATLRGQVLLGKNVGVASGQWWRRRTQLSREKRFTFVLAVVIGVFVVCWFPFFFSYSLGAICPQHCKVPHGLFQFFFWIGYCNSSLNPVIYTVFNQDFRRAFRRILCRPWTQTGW
T3 sequence (P22909 whole entry): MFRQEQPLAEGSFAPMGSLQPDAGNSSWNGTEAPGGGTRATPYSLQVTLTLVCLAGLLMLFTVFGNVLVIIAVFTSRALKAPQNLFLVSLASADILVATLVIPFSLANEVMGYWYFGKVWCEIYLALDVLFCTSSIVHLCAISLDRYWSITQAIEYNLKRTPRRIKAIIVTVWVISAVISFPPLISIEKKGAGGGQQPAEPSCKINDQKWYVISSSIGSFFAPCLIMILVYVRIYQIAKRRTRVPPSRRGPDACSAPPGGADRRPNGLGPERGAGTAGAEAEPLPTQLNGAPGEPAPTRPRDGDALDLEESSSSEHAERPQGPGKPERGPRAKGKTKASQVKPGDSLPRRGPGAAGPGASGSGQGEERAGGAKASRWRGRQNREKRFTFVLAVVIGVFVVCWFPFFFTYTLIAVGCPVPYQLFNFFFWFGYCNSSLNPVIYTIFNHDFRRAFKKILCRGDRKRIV
Kind of assay: Inhibition of binding of [3H]rauwolscine to Alpha-2 adrenergic receptor in rat cortical membranes.

Assay [4] deals with T1, D(2) dopamine receptor. The experiment in a line: Inhibition of binding of [3H]spiroperidol to Dopamine receptor D2 in rat striatal membranes.
The target in assay [5] is T4, Adrenergic receptor alpha-1 (Rattus norvegicus, UniProt P15823+P23944+P43140).
T4 sequence (P15823 whole entry): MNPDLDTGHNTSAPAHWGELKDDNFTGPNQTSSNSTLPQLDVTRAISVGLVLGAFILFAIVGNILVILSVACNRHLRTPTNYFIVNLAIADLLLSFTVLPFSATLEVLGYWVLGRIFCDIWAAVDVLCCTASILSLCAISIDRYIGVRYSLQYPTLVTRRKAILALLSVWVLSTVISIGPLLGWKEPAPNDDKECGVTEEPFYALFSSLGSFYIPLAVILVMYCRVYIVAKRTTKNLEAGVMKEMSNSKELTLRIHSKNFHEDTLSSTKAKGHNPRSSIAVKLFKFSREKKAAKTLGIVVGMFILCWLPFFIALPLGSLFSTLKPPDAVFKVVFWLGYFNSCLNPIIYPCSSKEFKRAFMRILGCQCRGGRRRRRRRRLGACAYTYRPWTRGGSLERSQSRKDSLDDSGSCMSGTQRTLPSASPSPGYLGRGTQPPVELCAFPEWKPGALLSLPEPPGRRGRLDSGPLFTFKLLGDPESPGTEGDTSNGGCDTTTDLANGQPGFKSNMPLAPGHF
T4 sequence (P23944 whole entry): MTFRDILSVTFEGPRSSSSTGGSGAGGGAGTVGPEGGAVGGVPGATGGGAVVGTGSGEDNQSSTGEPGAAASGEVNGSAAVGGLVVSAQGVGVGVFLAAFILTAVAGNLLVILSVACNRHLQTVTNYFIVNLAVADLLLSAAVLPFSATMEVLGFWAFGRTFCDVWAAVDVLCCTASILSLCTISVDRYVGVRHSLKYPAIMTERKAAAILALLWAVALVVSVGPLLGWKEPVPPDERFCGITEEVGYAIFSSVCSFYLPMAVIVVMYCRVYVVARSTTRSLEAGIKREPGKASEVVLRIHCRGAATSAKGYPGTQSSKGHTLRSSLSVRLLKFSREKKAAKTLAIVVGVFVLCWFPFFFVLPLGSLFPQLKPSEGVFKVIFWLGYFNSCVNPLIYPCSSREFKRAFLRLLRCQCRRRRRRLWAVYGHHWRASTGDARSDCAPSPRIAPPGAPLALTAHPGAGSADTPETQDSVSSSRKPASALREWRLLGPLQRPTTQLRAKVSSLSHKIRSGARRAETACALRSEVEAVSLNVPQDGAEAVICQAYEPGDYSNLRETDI
T4 sequence (P43140 whole entry): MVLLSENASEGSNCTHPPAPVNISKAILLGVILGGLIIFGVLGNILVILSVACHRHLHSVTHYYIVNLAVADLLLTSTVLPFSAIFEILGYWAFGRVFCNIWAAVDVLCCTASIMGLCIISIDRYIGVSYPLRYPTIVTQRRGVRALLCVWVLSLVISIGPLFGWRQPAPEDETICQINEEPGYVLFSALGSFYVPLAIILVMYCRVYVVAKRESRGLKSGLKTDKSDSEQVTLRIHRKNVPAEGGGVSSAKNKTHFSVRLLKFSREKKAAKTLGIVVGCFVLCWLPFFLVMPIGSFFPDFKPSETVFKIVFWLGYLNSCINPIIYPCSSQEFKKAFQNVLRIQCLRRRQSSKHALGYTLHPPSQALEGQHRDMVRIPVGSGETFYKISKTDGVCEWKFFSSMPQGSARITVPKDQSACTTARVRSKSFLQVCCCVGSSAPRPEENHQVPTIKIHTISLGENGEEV
Kind of assay: Inhibition of binding of [3H]prazosin to Alpha-1 adrenergic receptor in rat cortical membranes.

Assay [6] concerns the target T2, D(1A) dopamine receptor. Kind of assay: Inhibition of binding of [3H]SCH-23390 to Dopamine receptor D1 in rat striatal membranes.

T2 sequence (P18901 whole entry): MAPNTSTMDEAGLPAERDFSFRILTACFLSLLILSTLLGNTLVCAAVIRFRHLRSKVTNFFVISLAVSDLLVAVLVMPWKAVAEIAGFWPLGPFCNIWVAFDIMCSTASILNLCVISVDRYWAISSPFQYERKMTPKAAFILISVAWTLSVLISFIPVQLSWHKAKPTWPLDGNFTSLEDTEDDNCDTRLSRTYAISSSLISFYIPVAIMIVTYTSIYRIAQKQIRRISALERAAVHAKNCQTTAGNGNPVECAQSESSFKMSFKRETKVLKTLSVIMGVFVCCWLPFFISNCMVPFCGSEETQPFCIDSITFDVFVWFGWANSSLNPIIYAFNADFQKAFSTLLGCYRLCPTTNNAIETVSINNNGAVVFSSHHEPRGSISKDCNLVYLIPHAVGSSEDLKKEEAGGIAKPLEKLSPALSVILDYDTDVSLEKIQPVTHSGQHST
T1 sequence (P61169 whole entry): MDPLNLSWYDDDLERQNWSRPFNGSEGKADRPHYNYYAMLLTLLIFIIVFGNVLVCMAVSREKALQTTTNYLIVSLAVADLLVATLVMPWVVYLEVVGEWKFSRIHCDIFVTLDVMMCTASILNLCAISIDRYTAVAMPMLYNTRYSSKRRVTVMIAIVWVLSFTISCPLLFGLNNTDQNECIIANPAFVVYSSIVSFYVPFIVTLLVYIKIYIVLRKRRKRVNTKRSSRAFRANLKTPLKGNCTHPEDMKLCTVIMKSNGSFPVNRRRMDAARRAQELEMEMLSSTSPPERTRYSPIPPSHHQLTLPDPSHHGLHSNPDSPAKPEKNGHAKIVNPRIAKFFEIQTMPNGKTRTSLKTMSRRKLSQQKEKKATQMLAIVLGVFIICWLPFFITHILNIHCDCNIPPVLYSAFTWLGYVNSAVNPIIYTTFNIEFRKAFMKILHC

`c1ccc2c(c1)CC1CCCNC1C2` (stereo unspecified): the IC50 entry in assay [1] was “Not Active”; in assay [2], “Not Active”; in assay [3], 130 µM.
In assay [4], `NC1CCc2c(ccc(O)c2O)C1` (racemic) registered an IC50 of 0.7 µM.
For `COc1cccc2c1CC1CCCN(Cc3ccccc3)C1C2` (stereo in doubt; cis), the IC50 entry in assay [1] is “Not Active”; in assay [2] it was “Not Active”; in assay [5], 667 µM; in assay [3] it was 38 µM.
With `c1ccc(CN2CCCC3Cc4ccccc4CC32)cc1` (stereo in doubt; cis), the results for the IC50 result in assay [2], in assay [5] and in assay [3] were “Not Active”, 739 µM and 214 µM, respectively.
In the case of `COc1cccc2c1CC1CCCN(Cc3ccccc3)C1C2` (stereo in doubt; trans), the IC50 was 588 µM in assay [5], 0.45 µM in assay [6] and 6 µM in assay [3].
For `c1ccc(CN2CCCC3Cc4ccccc4CC32)cc1` (stereo in doubt; trans), the IC50 result in assay [1] is “Not Active”; in assay [5] it was 218 µM; in assay [6], 1.2 µM; in assay [3], 5.9 µM.
Turning to `COc1cccc2c1CC1CCCNC1C2` (trans isomer), the IC50 entry was “Not Active” in assay [1], “Not Active” in assay [2] and 67.5 µM in assay [3].
